Values belong to the compound of their own block, whether it stands above or below them.
Tests used:
[1] = target: Histone deacetylase 1 (Rattus norvegicus, UniProt Q4QQW4); experiment: Inhibition of FLAG-tagged HDAC1 in rat liver extract using fluorescent small molecule as substrate
[2] = target: T1, Histone deacetylase 6 (Rattus norvegicus, UniProt Q99P97); experiment: Inhibition of FLAG-tagged HDAC6 in rat liver extract using alpha-Ac tubulin as substrate
T1 sequence (Q99P97 whole entry): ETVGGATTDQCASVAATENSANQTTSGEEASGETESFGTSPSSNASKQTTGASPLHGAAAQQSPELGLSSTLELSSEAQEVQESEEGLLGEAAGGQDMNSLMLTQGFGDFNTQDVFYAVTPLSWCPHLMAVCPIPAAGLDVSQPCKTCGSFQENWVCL

[3] = target: T2, Histone deacetylase 7 (Homo sapiens, UniProt Q8WUI4); experiment: Inhibition of HDAC7 (unknown origin)
T2 sequence (Q8WUI4 whole entry): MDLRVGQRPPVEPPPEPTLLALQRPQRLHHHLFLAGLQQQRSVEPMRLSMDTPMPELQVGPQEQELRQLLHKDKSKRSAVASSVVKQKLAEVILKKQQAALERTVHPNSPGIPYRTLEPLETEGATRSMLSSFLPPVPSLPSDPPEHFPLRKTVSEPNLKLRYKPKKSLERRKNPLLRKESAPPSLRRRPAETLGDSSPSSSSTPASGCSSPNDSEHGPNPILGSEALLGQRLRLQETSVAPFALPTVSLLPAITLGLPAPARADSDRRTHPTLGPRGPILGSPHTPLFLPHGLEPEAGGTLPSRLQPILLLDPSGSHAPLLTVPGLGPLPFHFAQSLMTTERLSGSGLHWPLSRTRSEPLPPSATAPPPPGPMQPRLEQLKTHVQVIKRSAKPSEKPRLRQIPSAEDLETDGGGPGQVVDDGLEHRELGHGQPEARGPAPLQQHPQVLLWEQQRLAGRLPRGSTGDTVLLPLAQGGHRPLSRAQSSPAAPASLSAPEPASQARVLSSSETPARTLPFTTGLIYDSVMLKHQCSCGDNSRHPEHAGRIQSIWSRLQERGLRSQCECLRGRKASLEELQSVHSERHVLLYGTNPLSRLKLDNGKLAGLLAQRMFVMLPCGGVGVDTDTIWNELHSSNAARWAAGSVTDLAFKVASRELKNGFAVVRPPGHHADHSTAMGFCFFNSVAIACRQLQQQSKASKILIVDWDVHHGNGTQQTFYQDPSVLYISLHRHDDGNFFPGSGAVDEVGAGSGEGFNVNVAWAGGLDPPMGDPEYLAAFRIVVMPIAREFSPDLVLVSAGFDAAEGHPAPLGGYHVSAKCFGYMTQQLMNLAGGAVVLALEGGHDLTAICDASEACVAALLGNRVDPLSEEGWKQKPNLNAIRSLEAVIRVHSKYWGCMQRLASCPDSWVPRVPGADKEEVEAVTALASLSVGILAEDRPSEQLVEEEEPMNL

[4] = target: T3, Histone deacetylase 2 (Homo sapiens, UniProt Q92769); experiment: Inhibition of HDAC2 (unknown origin)
[5] = target: Histone deacetylase 5 (Homo sapiens, UniProt Q9UQL6); experiment: Inhibition of HDAC5 (unknown origin)
[6] = target: T4, Protein deacetylase HDAC6 (Homo sapiens, UniProt Q9UBN7); experiment: Inhibition of HDAC6 (unknown origin)
T4 sequence (Q9UBN7 whole entry): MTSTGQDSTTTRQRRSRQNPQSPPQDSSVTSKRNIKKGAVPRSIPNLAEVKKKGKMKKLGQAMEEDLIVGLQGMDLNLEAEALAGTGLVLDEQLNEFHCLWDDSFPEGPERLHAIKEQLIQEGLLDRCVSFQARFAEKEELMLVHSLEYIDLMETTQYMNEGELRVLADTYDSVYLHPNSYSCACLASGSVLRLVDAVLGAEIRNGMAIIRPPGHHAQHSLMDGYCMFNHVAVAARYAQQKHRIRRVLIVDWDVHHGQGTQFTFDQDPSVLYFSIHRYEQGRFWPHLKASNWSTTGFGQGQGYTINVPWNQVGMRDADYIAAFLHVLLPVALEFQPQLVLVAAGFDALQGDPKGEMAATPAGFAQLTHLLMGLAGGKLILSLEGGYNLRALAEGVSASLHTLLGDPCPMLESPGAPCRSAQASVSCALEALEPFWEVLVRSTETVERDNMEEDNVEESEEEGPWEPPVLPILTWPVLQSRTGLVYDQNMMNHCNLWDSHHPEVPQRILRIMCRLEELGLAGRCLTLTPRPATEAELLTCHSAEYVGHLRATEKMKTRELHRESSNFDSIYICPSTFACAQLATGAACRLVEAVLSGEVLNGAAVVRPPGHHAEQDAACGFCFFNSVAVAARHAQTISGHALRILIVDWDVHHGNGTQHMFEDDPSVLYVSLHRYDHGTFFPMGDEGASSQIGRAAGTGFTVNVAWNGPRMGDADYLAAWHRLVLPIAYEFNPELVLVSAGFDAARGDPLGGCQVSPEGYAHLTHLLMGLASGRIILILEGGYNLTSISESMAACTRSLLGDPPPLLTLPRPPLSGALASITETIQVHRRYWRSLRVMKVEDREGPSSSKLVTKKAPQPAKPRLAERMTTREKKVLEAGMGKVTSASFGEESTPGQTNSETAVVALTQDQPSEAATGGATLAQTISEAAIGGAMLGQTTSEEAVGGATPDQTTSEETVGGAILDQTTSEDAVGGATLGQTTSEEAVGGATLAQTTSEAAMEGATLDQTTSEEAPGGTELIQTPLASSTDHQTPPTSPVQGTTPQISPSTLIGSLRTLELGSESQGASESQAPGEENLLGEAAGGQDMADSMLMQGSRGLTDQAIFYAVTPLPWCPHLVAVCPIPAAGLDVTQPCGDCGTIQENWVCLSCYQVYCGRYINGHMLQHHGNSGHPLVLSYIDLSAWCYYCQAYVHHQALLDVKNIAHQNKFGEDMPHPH

[7] = target: T5, Histone deacetylase 11 (Homo sapiens, UniProt Q96DB2); experiment: Inhibition of HDAC11 (unknown origin)
T5 sequence (Q96DB2 whole entry): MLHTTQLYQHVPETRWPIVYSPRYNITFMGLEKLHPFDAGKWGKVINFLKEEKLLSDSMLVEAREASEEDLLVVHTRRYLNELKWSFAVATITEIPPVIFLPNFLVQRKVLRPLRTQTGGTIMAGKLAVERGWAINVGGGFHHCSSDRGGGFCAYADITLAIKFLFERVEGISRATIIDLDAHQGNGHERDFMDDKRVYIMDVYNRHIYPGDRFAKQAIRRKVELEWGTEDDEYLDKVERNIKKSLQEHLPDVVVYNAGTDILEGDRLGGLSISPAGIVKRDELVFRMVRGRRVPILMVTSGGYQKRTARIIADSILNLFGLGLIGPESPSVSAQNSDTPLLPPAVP

[8] = target: T6, Histone deacetylase 3 (Homo sapiens, UniProt O15379); experiment: Inhibition of HDAC3 (unknown origin)
[9] = target: T4, Protein deacetylase HDAC6; experiment: Inhibition of His-6-tagged full length HDAC6 (unknown origin) expressed in sf9 cells using carboxyfluorescein (FAM)-labeled acetylated peptide as substrate after 17 hrs by fluorescence-based electrophoretic assay
[10] = target: T6, Histone deacetylase 3; experiment: Inhibition of His-6-tagged full length HDAC3 (unknown origin) expressed in sf9 cells and co-expressed in SMRT gene (395 to 489) using carboxyfluorescein (FAM)-labeled acetylated peptide as substrate after 17 hrs by fluorescence-based electrophoretic assay
[11] = target: T7, Histone deacetylase 8 (Homo sapiens, UniProt Q9BY41); experiment: Inhibition of His-6-tagged full length HDAC8 (unknown origin) expressed in sf9 cells using carboxyfluorescein (FAM)-labeled acetylated peptide as substrate after 17 hrs by fluorescence-based electrophoretic assay
T7 sequence (Q9BY41 whole entry): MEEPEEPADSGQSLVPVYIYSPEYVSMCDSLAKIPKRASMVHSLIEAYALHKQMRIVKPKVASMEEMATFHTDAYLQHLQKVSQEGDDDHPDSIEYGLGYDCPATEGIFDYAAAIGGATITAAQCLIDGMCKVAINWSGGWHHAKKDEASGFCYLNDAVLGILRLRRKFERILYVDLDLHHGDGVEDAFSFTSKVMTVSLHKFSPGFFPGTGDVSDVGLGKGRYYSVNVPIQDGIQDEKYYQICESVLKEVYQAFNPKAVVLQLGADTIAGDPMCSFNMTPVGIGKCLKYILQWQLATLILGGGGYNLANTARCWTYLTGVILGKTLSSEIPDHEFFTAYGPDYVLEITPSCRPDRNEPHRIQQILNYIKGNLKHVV

[12] = target: T3, Histone deacetylase 2; experiment: Inhibition of His-6-tagged full length HDAC2 (unknown origin) expressed in sf9 cells using carboxyfluorescein (FAM)-labeled acetylated peptide as substrate after 17 hrs by fluorescence-based electrophoretic assay
[13] = target: T8, Polyamine deacetylase HDAC10 (Homo sapiens, UniProt Q969S8); experiment: Inhibition of C-terminal deleted 38 amino acids (632 to 669) HDAC10 (unknown origin) expressed in sf9 cells using carboxyfluorescein (FAM)-labeled acetylated peptide as substrate after 17 hrs by fluorescence-based electrophoretic assay
T8 sequence (Q969S8 whole entry): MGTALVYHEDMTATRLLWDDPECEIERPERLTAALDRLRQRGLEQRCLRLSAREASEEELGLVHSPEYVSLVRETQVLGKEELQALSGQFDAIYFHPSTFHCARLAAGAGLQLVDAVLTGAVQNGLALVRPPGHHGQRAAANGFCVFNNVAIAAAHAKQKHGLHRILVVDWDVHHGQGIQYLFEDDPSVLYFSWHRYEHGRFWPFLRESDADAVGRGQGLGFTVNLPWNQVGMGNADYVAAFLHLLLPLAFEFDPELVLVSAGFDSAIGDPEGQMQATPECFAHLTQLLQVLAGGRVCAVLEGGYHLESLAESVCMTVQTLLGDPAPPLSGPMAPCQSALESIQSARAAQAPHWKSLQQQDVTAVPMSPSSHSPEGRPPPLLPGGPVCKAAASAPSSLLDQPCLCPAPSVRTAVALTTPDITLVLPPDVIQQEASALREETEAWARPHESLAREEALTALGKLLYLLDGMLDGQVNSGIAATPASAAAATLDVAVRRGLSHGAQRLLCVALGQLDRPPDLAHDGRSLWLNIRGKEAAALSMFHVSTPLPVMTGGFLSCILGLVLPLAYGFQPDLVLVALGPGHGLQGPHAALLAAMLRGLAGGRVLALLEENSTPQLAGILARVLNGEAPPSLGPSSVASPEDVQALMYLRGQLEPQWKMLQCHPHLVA

[14] = target: T9, Histone deacetylase 1 (Homo sapiens, UniProt Q13547); experiment: Inhibition of His-6-tagged full length HDAC1 (unknown origin) expressed in sf9 cells using carboxyfluorescein (FAM)-labeled acetylated peptide as substrate after 17 hrs by fluorescence-based electrophoretic assay
[15] = target: T9, Histone deacetylase 1; experiment: Inhibition of HDAC1 (unknown origin)
[16] = target: Histone deacetylase 4 (Homo sapiens, UniProt P56524); experiment: Inhibition of HDAC4 (unknown origin)
[17] = target: T8, Polyamine deacetylase HDAC10; experiment: Inhibition of HDAC10 (unknown origin)
[18] = target: T3, Histone deacetylase 2; experiment: Inhibition of HDAC2 (unknown origin) using carboxyfluorescein (FAM)-labeled acetylated peptide as substrate after 17 hrs by fluorescence-based electrophoretic assay
[19] = target: T6, Histone deacetylase 3; experiment: Inhibition of HDAC3 (unknown origin) using carboxyfluorescein (FAM)-labeled acetylated peptide as substrate after 17 hrs by fluorescence-based electrophoretic assay
[20] = target: T9, Histone deacetylase 1; experiment: Inhibition of HDAC1 (unknown origin) using carboxyfluorescein (FAM)-labeled acetylated peptide as substrate after 17 hrs by fluorescence-based electrophoretic assay
[21] = target: T7, Histone deacetylase 8; experiment: Inhibition of HDAC8 (unknown origin); conditions: read-out: Kd(app)

T3 sequence (Q92769 whole entry): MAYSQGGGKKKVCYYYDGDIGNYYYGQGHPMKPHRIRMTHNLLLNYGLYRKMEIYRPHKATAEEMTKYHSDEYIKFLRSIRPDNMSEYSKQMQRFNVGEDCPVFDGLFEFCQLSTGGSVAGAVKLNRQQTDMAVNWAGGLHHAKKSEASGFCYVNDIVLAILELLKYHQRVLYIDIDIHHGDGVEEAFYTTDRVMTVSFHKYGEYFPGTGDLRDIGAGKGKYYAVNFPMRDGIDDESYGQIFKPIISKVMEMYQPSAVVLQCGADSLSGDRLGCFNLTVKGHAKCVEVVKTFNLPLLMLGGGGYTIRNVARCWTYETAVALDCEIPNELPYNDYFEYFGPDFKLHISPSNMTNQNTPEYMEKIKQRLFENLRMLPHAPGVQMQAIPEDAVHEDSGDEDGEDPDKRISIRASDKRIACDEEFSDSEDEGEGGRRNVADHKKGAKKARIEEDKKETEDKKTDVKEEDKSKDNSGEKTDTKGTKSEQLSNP
T6 sequence (O15379 whole entry): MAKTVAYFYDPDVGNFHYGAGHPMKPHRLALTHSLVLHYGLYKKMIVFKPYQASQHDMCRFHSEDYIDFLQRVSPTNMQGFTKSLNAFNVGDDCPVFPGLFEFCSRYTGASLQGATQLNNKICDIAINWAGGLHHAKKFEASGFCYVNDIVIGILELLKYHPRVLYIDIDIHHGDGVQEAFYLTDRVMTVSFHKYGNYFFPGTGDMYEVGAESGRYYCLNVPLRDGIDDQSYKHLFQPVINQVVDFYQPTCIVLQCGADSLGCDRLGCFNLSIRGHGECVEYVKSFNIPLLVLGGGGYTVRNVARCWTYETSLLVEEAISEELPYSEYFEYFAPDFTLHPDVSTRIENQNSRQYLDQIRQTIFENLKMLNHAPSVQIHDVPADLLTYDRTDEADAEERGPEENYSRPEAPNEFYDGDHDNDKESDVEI
T9 sequence (Q13547 whole entry): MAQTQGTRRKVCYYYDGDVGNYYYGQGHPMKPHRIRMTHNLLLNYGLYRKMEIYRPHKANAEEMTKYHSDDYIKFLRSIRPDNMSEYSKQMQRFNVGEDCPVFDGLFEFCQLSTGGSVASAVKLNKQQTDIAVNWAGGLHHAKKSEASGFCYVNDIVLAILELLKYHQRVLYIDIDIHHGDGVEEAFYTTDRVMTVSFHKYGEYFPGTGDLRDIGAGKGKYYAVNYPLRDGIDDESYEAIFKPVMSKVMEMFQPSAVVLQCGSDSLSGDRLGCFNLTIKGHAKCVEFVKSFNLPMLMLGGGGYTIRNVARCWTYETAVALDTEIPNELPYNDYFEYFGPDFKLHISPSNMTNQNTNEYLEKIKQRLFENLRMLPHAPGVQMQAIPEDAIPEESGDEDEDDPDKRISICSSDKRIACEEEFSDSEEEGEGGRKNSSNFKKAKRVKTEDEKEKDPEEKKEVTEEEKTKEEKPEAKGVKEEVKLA
Histone deacetylase 5, sequence (Q9UQL6 whole entry): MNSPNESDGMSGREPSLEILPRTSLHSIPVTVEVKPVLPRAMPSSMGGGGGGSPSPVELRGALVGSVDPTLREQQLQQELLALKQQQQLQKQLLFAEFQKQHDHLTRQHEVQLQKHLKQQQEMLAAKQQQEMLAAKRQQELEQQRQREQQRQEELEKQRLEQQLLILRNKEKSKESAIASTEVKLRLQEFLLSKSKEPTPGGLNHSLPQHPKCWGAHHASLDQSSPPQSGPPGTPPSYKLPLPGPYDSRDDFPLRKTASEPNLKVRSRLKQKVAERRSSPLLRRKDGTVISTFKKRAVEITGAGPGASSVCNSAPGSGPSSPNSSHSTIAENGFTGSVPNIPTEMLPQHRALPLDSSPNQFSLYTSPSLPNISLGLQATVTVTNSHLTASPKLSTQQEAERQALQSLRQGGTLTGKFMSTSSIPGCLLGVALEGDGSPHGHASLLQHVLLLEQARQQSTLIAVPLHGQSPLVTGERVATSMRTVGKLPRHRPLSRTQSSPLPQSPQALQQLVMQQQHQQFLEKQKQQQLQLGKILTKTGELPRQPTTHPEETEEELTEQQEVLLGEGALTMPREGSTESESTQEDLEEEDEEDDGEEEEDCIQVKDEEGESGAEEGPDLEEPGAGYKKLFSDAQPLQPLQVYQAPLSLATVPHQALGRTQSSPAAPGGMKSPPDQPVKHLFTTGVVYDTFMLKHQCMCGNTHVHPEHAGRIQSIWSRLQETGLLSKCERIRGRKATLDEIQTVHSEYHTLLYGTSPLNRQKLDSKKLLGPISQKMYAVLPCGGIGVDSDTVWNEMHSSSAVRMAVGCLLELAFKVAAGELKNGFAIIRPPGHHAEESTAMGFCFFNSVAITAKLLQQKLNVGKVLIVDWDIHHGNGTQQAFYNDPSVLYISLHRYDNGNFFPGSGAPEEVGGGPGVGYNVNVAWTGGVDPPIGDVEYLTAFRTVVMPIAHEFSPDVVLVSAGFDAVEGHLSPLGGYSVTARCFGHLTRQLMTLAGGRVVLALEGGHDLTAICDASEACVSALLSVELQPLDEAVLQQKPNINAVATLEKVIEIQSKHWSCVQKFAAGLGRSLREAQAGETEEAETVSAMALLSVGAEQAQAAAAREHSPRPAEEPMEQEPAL
Histone deacetylase 4, sequence (P56524 whole entry): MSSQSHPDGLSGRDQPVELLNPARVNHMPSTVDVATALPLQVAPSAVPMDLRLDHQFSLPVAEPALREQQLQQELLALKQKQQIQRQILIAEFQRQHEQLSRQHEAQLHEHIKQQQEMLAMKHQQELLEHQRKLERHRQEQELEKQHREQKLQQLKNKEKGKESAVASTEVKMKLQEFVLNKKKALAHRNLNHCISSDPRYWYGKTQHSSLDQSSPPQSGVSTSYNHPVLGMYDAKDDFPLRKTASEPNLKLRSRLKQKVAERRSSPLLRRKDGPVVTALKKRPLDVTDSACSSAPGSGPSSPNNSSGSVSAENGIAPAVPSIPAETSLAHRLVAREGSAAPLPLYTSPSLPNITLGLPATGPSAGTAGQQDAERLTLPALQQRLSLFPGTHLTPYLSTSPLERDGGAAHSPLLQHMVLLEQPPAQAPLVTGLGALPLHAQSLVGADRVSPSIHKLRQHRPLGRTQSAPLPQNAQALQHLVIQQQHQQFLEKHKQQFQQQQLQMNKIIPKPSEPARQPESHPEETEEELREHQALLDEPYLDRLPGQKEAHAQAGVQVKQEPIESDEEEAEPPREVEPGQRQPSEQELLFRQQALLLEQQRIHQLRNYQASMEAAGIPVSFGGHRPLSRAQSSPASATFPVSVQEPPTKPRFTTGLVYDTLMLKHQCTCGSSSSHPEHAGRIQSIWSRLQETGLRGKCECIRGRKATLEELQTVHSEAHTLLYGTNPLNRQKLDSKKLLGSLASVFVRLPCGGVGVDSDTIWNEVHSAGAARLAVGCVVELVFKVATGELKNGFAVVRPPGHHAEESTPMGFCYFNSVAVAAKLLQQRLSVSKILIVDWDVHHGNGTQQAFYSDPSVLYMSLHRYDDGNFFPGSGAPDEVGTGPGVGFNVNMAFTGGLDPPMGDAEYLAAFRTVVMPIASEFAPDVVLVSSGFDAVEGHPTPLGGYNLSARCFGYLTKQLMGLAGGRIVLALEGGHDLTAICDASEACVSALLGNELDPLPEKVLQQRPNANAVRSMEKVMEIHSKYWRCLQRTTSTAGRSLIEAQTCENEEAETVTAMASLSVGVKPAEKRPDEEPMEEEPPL
Histone deacetylase 1 (Rattus norvegicus, UniProt Q4QQW4), sequence (Q4QQW4 whole entry): as the sequence (Q13547 whole entry) above, with R8K, D399E, E424D, L481M counted along it

Compound: COC(=O)[C@H](Cc1ccccc1)NC(=O)CCCCCCCCC(=O)NO
IC50 [1]: 28.6 µM
IC50 [2]: 0.91 µM

Compound: O=C(CS)NCCCCCC(=O)Nc1cccc2cccnc12
IC50 [3]: 2.78 µM
IC50 [4]: 1.25 µM
IC50 [5]: 0.89 µM
IC50 [6]: 0.021 µM
IC50 [7]: 0.61 µM
IC50 [8]: 1.32 µM

Compound: Cc1onc(-c2ccccc2)c1C(=O)NCCCCCNC(=O)CS
IC50 [4]: 28 µM
IC50 [5]: 15 µM
IC50 [6]: 0.26 µM
IC50 [15]: 5.7 µM
IC50 [16]: 10 µM

Compound: CCCCOc1ccc(CC(=O)NO)cc1 [BUFEXAMAC]
Kd ([4]; read-out: Kd(app)): > 1000 µM
Kd ([6]; read-out: Kd(app)): 10.7 µM
Kd ([17]; read-out: Kd(app)): 12.3 µM
Kd ([15]; read-out: Kd(app)): > 1000 µM
Kd ([8]; read-out: Kd(app)): 341 µM
Kd [21]: 235 µM

Further lines, results first:

IC50 [9]: < 0.0002 µM
IC50 [10]: 0.002 µM
IC50 [11]: 2.58 µM
IC50 [12]: 0.021 µM
IC50 [13]: 0.006 µM
IC50 [14]: 0.004 µM
Compound: CC(C)(C)OC(=O)Nc1cccc(-c2csc(NC(=O)CCCCCCC(=O)NO)n2)c1

IC50 [17]: > 10 µM
Compound: O=C(CCCCCCNC(=O)c1cnc(N(c2ccccc2)c2ccccc2)nc1)NO [RICOLINOSTAT]

IC50 [18]: 0.093 µM
IC50 [19]: 0.19 µM
IC50 [20]: 0.0127 µM
Compound: CC(C)(C)OC(=O)Nc1ccc(-c2cc(C(=O)NCCCCCCC(=O)NO)no2)cc1
